Reference: the supplement of paper PMC9663587

Key:
[1] = system: HCC1806; test: GRmax, 72 h; higher = less effect;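 also: breast cell lines in 384-well plates, nine doses across a 10^4 range, Dye Drop imaging of viable cells vs DMSO and time-zero plates, GR 0 means no net growth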
[2] = system: MDAMB415; test: GRmax, 72 h; higher = less effect;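 also: breast cell lines in 384-well plates, nine doses across a 10^4 range, Dye Drop imaging of viable cells vs DMSO and time-zero plates, GR 0 means no net growth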
[3] = system: HCC1143; test: GRmax, 72 h; higher = less effect;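 also: breast cell lines in 384-well plates, nine doses across a 10^4 range, Dye Drop imaging of viable cells vs DMSO and time-zero plates, GR 0 means no net growth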
[4] = system: MCF7; test: GRmax, 72 h; higher = less effect;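 also: breast cell lines in 384-well plates, nine doses across a 10^4 range, Dye Drop imaging of viable cells vs DMSO and time-zero plates, GR 0 means no net growth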
[5] = system: BT474; test: GRmax, 72 h; higher = less effect
[6] = system: HCC1419; test: GRmax, 72 h; higher = less effect
[7] = system: MGH312; test: GRmax, 72 h; higher = less effect
[8] = system: CAL51; test: GRmax, 72 h; higher = less effect
[9] = system: HCC1187; test: GRmax, 72 h; higher = less effect
[10] = system: HS578T; test: area over the GR curve, 72 h; higher = more effect;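 also: Dye Drop or Deep Dye Drop imaging of viable cells in 384-well plates (Hoechst nuclei, LIVE/DEAD dye), nine half-log doses, GR normalized to DMSO controls and time-zero plates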
[11] = system: HCC1954; test: area over the GR curve, 72 h; higher = more effect;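 also: Dye Drop or Deep Dye Drop imaging of viable cells in 384-well plates (Hoechst nuclei, LIVE/DEAD dye), nine half-log doses, GR normalized to DMSO controls and time-zero plates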
[12] = system: SUM185PE; test: area over the GR curve, 72 h; higher = more effect;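 also: Dye Drop or Deep Dye Drop imaging of viable cells in 384-well plates (Hoechst nuclei, LIVE/DEAD dye), nine half-log doses, GR normalized to DMSO controls and time-zero plates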
[13] = system: HCC1187; test: area over the GR curve, 72 h; higher = more effect;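 also: Dye Drop or Deep Dye Drop imaging of viable cells in 384-well plates (Hoechst nuclei, LIVE/DEAD dye), nine half-log doses, GR normalized to DMSO controls and time-zero plates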

| SMILES | GRmax, 72 h [1] [GR] | GRmax, 72 h [2] [GR] | GRmax, 72 h [3] [GR] | GRmax, 72 h [4] [GR] | GRmax, 72 h [5] [GR] | GRmax, 72 h [6] [GR] | GRmax, 72 h [7] [GR] | GRmax, 72 h [8] [GR] | GRmax, 72 h [9] [GR] | area over the GR curve [10] [GR] | area over the GR curve [11] [GR] | area over the GR curve [12] [GR] | area over the GR curve [13] [GR] |
| --- | --- | --- | --- | --- | --- | --- | --- | --- | --- | --- | --- | --- | --- |
| CCC(=O)Nc1ccc(C(=O)Nc2ccc(Nc3ncc4c(n3)N(C)c3ccc(C)cc3C(=O)N4C)cc2)cc1 [FMF-03-145-1] | -0.09 | 0.0653 | 0.09 | 0.0265 | -0.227 | 0.387 | -0.365 | 0.0325 | -0.506 | 1.07 | 1.15 | 0.384 | 1.51 |
| COc1cc(N2CCN(C)CC2)ccc1Nc1ncc2c(n1)N(C)c1ccccc1C(=O)N2CC(F)(F)F [FMF-03-146-1] | 0.942 | 0.959 | 0.815 | 0.78 | 1.07 | 0.805 | 0.866 | 0.922 | 0.955 | 0.0103 | 0.0296 | 0.0495 | -0.332 |
| CN1CC[C@H](c2c(O)cc(O)c3c(=O)cc(-c4ccccc4Cl)oc23)[C@H](O)C1 [Flavopiridol] (max 1 µM) | -0.568 | -0.303 | -0.316 | -0.291 | -0.751 | -0.263 | -0.945 | -0.0935 | -0.885 | 0.254 | 0.313 | 0.308 | 0.0933 |
| CC(C)n1nc(-c2ccc3oc(N)nc3c2)c2c(N)ncnc21 [INK128/MLN0128] (max 3.162 µM) | 0.262 | -0.338 | 0.0314 | -0.045 | -0.587 | -0.147 | -0.89 | 0.0529 | 0.0961 | 0.623 | 0.565 | 0.609 | 0.416 |
| CC(C)NC[C@@H](C(=O)N1CCN(c2ncnc3c2[C@H](C)C[C@H]3O)CC1)c1ccc(Cl)cc1 [Ipatasertib/GDC0068] (max 10 µM) | 0.945 | -0.698 | 0.751 | 0.25 | -0.358 | 0.505 | -0.936 | 0.387 | 0.409 | 0.246 | 0.214 | 0.155 | 0.286 |
| CN(C)C(=O)c1cc2cnc(Nc3ccc(N4CCNCC4)cn3)nc2n1C1CCCC1 [LEE011/Ribociclib] (max 10 µM) | 0.682 | 0.231 | 0.298 | 0.31 | 0.583 | 0.547 | 0.894 | 0.385 | 0.56 | 0.351 | 0.309 | 0.101 | -0.0536 |
| CCNC(=O)c1noc(-c2cc(C(C)C)c(O)cc2O)c1-c1ccc(CN2CCOCC2)cc1 [Luminespib/NVP-AUY922] (max 1 µM) | -0.175 | -0.305 | -0.192 | 0.0015 | -0.505 | -0.297 | -0.685 | -0.339 | -0.476 | 0.67 | 0.601 | 0.673 | 0.919 |
| CCOc1cc2ncc(C#N)c(Nc3ccc(OCc4ccccn4)c(Cl)c3)c2cc1NC(=O)/C=C/CN(C)C [Neratinib/HKI272] (max 3.162 µM) | -0.0883 | 0.0922 | 0.0791 | 0.0582 | -0.919 | -0.501 | -0.278 | 0.28 | 0.421 | 0.202 | 0.429 | 0.255 | 0.181 |
| O=C(c1cc(Cc2n[nH]c(=O)c3ccccc23)ccc1F)N1CCN(C(=O)C2CC2)CC1 [Olaparib/AZD2281] (max 10 µM) | 0.489 | 0.816 | 0.456 | 0.514 | 0.64 | 0.632 | 0.537 | 0.36 | 0.0867 | 0.0997 | 0.0536 | -0.0156 | 0.157 |
| CC(=O)O[C@H]1C(=O)[C@@]2(C)[C@H]([C@H](OC(=O)c3ccccc3)[C@]3(O)C[C@H](OC(=O)[C@H](O)[C@@H](NC(=O)c4ccccc4)c4ccccc4)C(C)=C1C3(C)C)[C@]1(OC(C)=O)CO[C@@H]1C[C@@H]2O [Paclitaxel] (max 1 µM) | -0.211 | -0.344 | -0.335 | -0.106 | -0.636 | 0.214 | -0.508 | -0.22 | -0.754 | 0.954 | 0.827 | 0.479 | 1.34 |
| CS(=O)(=O)N1CCN(Cc2cc3nc(-c4cccc5[nH]ncc45)nc(N4CCOCC4)c3s2)CC1 [Pictilisib/GDC0941] (max 10 µM) | 0.194 | -0.687 | -0.129 | -0.159 | -0.828 | -0.21 | -0.923 | 0.0266 | -0.293 | 0.311 | 0.309 | 0.458 | 0.374 |
| O=C1NC(=NCc2cccs2)SC1=Cc1ccc2ncccc2c1 [R0-3306] (max 10 µM) | -0.112 | 0.914 | -0.114 | 0.067 | 0.144 | 0.246 | -0.249 | 0.232 | -0.648 | 0.139 | 0.0716 | 0.0686 | 0.017 |
| CNCc1ccc(-c2[nH]c3cc(F)cc4c3c2CCNC4=O)cc1 [Rucaparib] (max 10 µM) | 0.68 | 0.642 | 0.785 | 0.635 | 0.852 | 0.855 | 0.569 | 0.704 | 0.802 | 0.0974 | 0.059 | 0.108 | -0.119 |
| CC1(N)CCN(c2cnc(-c3cccc(Cl)c3Cl)c(N)n2)CC1 [SHP099] (max 10 µM) | 0.988 | 0.75 | 0.796 | 0.847 | 0.889 | 0.819 | 0.976 | 0.904 | 0.77 | 0.142 | 0.0791 | 0.176 | -0.341 |
| CN1CCN(CCOc2cc(OC3CCOCC3)c3c(Nc4c(Cl)ccc5c4OCO5)ncnc3c2)CC1 [Saracatinib/AZD0530] (max 10 µM) | 0.221 | 0.324 | 0.388 | 0.274 | -0.548 | -0.115 | -0.401 | 0.258 | 0.15 | 0.159 | 0.191 | 0.279 | 0.457 |
| Cc1cc(C(C)Nc2ccccc2)c2nc(N3CCOCC3)cc(=O)n2c1 (stereo not drawn) [TGX221] (max 10 µM) | 0.982 | 0.184 | 0.918 | 0.789 | 0.524 | 0.794 | -0.158 | 0.91 | 0.46 | 0.0668 | -0.0656 | 0.163 | 0.305 |
| CN(C)C/C=C/C(=O)Nc1ccc(C(=O)Nc2cccc(Nc3ncc(Cl)c(-c4c[nH]c5ccccc45)n3)c2)cc1 [THZ1] (max 1 µM) | -0.658 | -0.421 | -0.318 | -0.469 | -0.658 | -0.386 | -0.939 | 0.107 | -0.852 | 0.518 | 0.31 | 0.484 | 0.71 |
| CN(C)C/C=C/C(=O)Nc1ccc(C(=O)N2CCC[C@@H](Nc3ncc(Cl)c(-c4c[nH]c5ccccc45)n3)C2)cc1 [THZ531] (max 1 µM) | -0.489 | -0.344 | -0.23 | -0.367 | -0.861 | -0.294 | -0.947 | 0.559 | -0.852 | 0.377 | 0.143 | 0.231 | 0.129 |
| CN(C)C/C=C/C(=O)Nc1ccc(C(=O)Nc2cccc(Nc3cc(-c4c[nH]c5ccccc45)ncn3)c2)cc1 [THZ-P1-2] (max 10 µM) | -0.467 | -0.513 | -0.404 | -0.708 | -0.697 | -0.578 | -0.983 | 0.751 | 0.283 | -0.017 | 0.114 | 0.14 | 0.331 |
| Cc1nc(-c2cn3c(n2)-c2ccc(-c4cnn(C(C)(C)C(N)=O)c4)cc2OCC3)n(C(C)C)n1 [Taselisib/GDC0032] (max 10 µM) | -0.0297 | -0.792 | -0.0942 | -0.255 | -0.989 | -0.405 | -0.927 | -0.413 | -0.0769 | 0.374 | 0.949 | 0.879 | 0.497 |
| O=C1NC(=O)[C@@H](c2cn3c4c(cccc24)CCC3)[C@@H]1c1c[nH]c2ccccc12 [Tivantinib/ARQ197] (max 10 µM) | -0.218 | -0.184 | -0.312 | -0.0512 | -0.323 | 0.163 | -0.537 | -0.282 | -0.761 | 0.437 | 0.544 | 0.239 | 0.891 |
| Nc1ccc(-c2ccc3ncc4ccc(=O)n(-c5cccc(C(F)(F)F)c5)c4c3c2)cn1 [Torin2] (max 1 µM) | -0.14 | -0.372 | -0.153 | -0.133 | -0.648 | -0.372 | -0.772 | -0.152 | -0.0468 | 0.566 | 0.55 | 0.473 | 0.588 |
| CC[C@@H]1C(=O)N(C)c2cnc(Nc3ccc(C(=O)N[C@H]4CC[C@H](N5CCN(CC6CC6)CC5)CC4)cc3OC)nc2N1C(C)C [Volasertib/BI6727] (max 1 µM) | -0.132 | -0.314 | -0.345 | -0.0338 | -0.284 | 0.0685 | -0.675 | -0.337 | -0.708 | 0.82 | 0.611 | 0.286 | 0.883 |
| O=C(CCCCCCC(=O)Nc1ccccc1)NO [Vorinostat] (max 10 µM) | 0.0178 | -0.503 | -0.253 | -0.175 | -0.924 | -0.256 | -0.945 | -0.0506 | -0.467 | 0.269 | 0.234 | 0.0835 | 0.303 |
| C=CC(=O)Nc1ccc(C(=O)Nc2[nH]nc3c2CN(C(=O)N[C@H](CN(C)C)c2ccccc2)C3(C)C)cc1 [YKL-5-124] (max 10 µM) | -0.469 | -0.0129 | -0.0844 | -0.268 | -0.566 | -0.411 | -0.919 | 0.0082 | -0.635 | 0.815 | 0.969 | 0.518 | 0.822 |
| CN1CCN(C(=O)c2ccc3cc(CCNc4ncnc5ccc(C#N)cc45)ccc3c2)CC1 [senexin b] (max 10 µM) | 0.817 | 0.609 | 0.452 | 0.474 | 0.107 | 0.445 | 0.168 | 0.755 | 1.62 | 0.139 | 0.327 | 0.293 | -0.306 |
